Data reported in patent publication US11549142B2, “CETP inhibitors for therapeutic use” (Hoffmann-La Roche Inc., priority 2013, dated 2023).
Where “and” joins values, the source holds several entries; their conditions need not be identical. Equal entries are not always repeated. Entries after “also recorded” stand apart in the source; their conditions may differ.

Tested on: patients recently hospitalized for an Acute Coronary Syndrome (ACS)
Assay: dal-OUTCOMES phase III trial with pharmacogenomic (GWAS) analysis of cardiovascular events by ADCY9 genotype
Assay type: in vivo, human
Set-up: key to Predicted response: R: Responsive; PR: Partial Responsive; NR: Non Responsive
Description: The dalcetrapib mortality and morbidity trial (dal-OUTCOMES) was a double-blind, randomized, placebo-controlled, parallel group, multi-centre study in stable CHD patients recently hospitalized for acute coronary syndrome (ACS). The study was conducted to test the hypothesis that CETP inhibition will reduce the risk of recurrent cardiovascular events in patients with recent ACS by raising levels of HDL-C through CETP inhibition. Eligible patients entered a single-blind placebo run-in period of approximately 4 to 6 weeks to allow for patients to stabilize and for completion of planned revascularization procedures. At the end of the run-in period, eligible patients in stable condition were randomized in a 1:1 ratio to 600 mg of dalcetrapib or placebo on top of evidence-based medical care for ACS. Dalcetrapib is an inhibitor of cholesterol-ester transfer protein (CETP). […] The trial was interrupted in May 2012 by the DSMB on grounds of futility.
Dal-OUTCOMES trial (NC20971) was a double blind, randomized, placebo-controlled, parallel group, multi-center, phase III study to assess the safety and efficacy of the CETP inhibitor dalcetrapib in patients recently hospitalized for an Acute Coronary Syndrome (ACS). At time of the interim analysis the study included 15871 randomized patients, distributed over two treatment arms: placebo (7933 patients) and dalcetrapib (600 mg daily; 7938 patients). […] The dal-OUTCOMES study details can be found in G. Schwartz et al., N. Engl. J. Med. 367; 22, 2012.\
Whole genome analysis was performed in GLP-environment at the Beaulieu-Saucier Pharmacogenomics Centre. The Infinium® HumanOmni25Exome-8v1_A BeadChip (Illumina, San Diego, Calif.) including 2,567,845 genomic markers was used and processed according to the manufacturer's specifications. Approximately 200 ng of genomic DNA was whole-genome amplified, fragmented, and hybridized to locus-specific probes bound to the surface of each BeadChip. DNA was genotyped using a fluorescently labelled single base extension assay. BeadChips were scanned and analyzed using the Illumina® iScan Reader. Infinium® process controls were monitored and all results were within manufacturer's specifications. Scanned images were analyzed using Illumina's GenomeStudio® version 2011.1 with the GenTrain 2.0 cluster algorithm, using a No-Call threshold of 0.15, without manual cluster adjustment and using the manufacturer's Illumina® HumanOmni25Exome-8v1_A cluster file. […] Three genotyping files in PLINK format generated by GenomeStudio® were combined and transformed to binary PLINK format.
Genotyping completion rate for samples and SNPs was set to 98%. SNPs with genotyping plate bias (based on the 96 well plates used to dilute DNA samples) were flagged but not removed as the effect of genetic ancestry could not be excluded. Pairwise IBD was used to conduct close familial relationship checks. We flagged and removed all but one pair-member of related pairs and sample duplicates (IBS2*ratio>0.80) based on a selection of uncorrelated SNPs (r^2<0.1). The pairwise IBS matrix was used as a distance metric to identify cryptic relatedness among samples and sample outliers by multi-dimensional scaling (MDS). The first two MDS components of each subject were plotted including the genotypes of HapMap CEU, JPT-CHB, and YRI data (keeping only founder individuals). Outliers from the main Caucasian cluster were flagged and removed by k-nearest neighbour. (Supplementary FIG. 1) The scree plot and the cumulative explained variance were computed using the smartpca program of the EIGENSOFT suite (version 3.0). Options used were a numoutlieriter (maximum number of outlier removal iterations) of 0 (turned off) and altnormstyle (normalization formula) equal to NO. ^4 (Supplementary FIG. 2)
A statistical analysis plan was developed at the Beaulieu-Saucier Pharmacogenomics Centre and the final version approved prior to genotyping completion in October 2012. […]

CCC(CC)CC1(C(=O)Nc2ccccc2SC(=O)C(C)C)CCCCC1 [dalcetrapib, thioisobutyric acid S-(2-{[1-(2-ethyl-butyl)-cyclohexanecarbonyl]-amino}-phenyl) ester]
event rate in the primary efficacy endpoint (cardiovascular events), dalcetrapib arm compared to the placebo arm (all patients, 600 mg daily): lack of efficacy relative to statins alone; also recorded: did not show a significant reduction in cardiovascular events; also recorded: no evidence of reduction of the event rate | HDL-c (patients on treatment, dal-OUTCOMES): marked increase | HR for events, additive genetic effect of one allele (rs1967309, dal-Outcomes treatment arm, Cox proportional hazards): 0.65 (95% CI 0.55, 0.76) | HR (95% CI) for time to events, dalcetrapib treatment arm only, genotype comparison (rs1967309 AA vs GG): 0.40 (95% CI 0.28, 0.57) and 0.4 (0.28, 0.57) | HR (95% CI) for time to events, dalcetrapib treatment arm only, genotype comparison (rs1967309 GA vs GG): 0.68 (95% CI 0.55, 0.84) and 0.68 (0.56, 0.84) | Predicted response (rs1967309 genotype AA): R | HR for time to events, dalcetrapib treatment arm versus placebo arm (rs1967309 genotype GA): 0.94 | Predicted response (rs1967309 genotype GA): PR | HR for time to events, dalcetrapib treatment arm versus placebo arm (rs1967309 genotype GG): 1.27 | Predicted response (rs1967309 genotype GG): NR | HR (95% CI) for time to events, dalcetrapib treatment arm only, genotype comparison (rs2239310 AG vs AA): 0.71 (0.58,0.87) | HR (95% CI) for time to events, dalcetrapib treatment arm only, genotype comparison (rs2239310 GG vs AA): 0.43 (0.29, 0.63) | HR for time to events, dalcetrapib treatment arm versus placebo arm (rs2239310 genotype AA): 1.16 | Predicted response (rs2239310 genotype AA): NR | HR for time to events, dalcetrapib treatment arm versus placebo arm (rs2239310 genotype AG): 0.96 | Predicted response (rs2239310 genotype AG): PR | HR for time to events, dalcetrapib treatment arm versus placebo arm (rs2239310 genotype GG): 0.6 | Predicted response (rs2239310 genotype GG): R | HR (95% CI) for time to events, dalcetrapib treatment arm only, genotype comparison (rs2283497 AA vs CC): 0.53 (0.37, 0.76) | HR (95% CI) for time to events, dalcetrapib treatment arm only, genotype comparison (rs2283497 CA vs CC): 0.83 (0.67, 1.02) | HR for time to events, dalcetrapib treatment arm versus placebo arm (rs2283497 genotype AA): 0.57 | Predicted response (rs2283497 genotype AA): R | HR for time to events, dalcetrapib treatment arm versus placebo arm (rs2283497 genotype CA): 0.99 | Predicted response (rs2283497 genotype CA): PR | HR for time to events, dalcetrapib treatment arm versus placebo arm (rs2283497 genotype CC): 1.23 | Predicted response (rs2283497 genotype CC): NR | HR (95% CI) for time to events, dalcetrapib treatment arm only, genotype comparison (rs2531967 AA vs GG): 0.5 (0.29, 0.86) | HR (95% CI) for time to events, dalcetrapib treatment arm only, genotype comparison (rs2531967 GA vs GG): 0.75 (0.61, 0.93) | HR for time to events, dalcetrapib treatment arm versus placebo arm (rs2531967 genotype AA): 0.67 | Predicted response (rs2531967 genotype AA): R | HR for time to events, dalcetrapib treatment arm versus placebo arm (rs2531967 genotype GA): 0.86 | Predicted response (rs2531967 genotype GA): PR | HR for time to events, dalcetrapib treatment arm versus placebo arm (rs2531967 genotype GG): 1.12 | Predicted response (rs2531967 genotype GG): NR | HR (95% CI) for time to events, dalcetrapib treatment arm only, genotype comparison (rs3730119 AA vs GG): 0.49 (0.22, 1.1) | HR (95% CI) for time to events, dalcetrapib treatment arm only, genotype comparison (rs3730119 GA vs GG): 0.78 (0.62, 0.99) | HR for time to events, dalcetrapib treatment arm versus placebo arm (rs3730119 genotype AA): 0.48 | Predicted response (rs3730119 genotype AA): R | HR for time to events, dalcetrapib treatment arm versus placebo arm (rs3730119 genotype GA): 0.86 | Predicted response (rs3730119 genotype GA): PR | HR for time to events, dalcetrapib treatment arm versus placebo arm (rs3730119 genotype GG): 1.08 | Predicted response (rs3730119 genotype GG): NR | HR (95% CI) for time to events, dalcetrapib treatment arm only, genotype comparison (rs4786454 AA vs GG): 0.37 (0.15, 0.9) | HR (95% CI) for time to events, dalcetrapib treatment arm only, genotype comparison (rs4786454 GA vs GG): 0.69 (0.54, 0.87) | HR for time to events, dalcetrapib treatment arm versus placebo arm (rs4786454 genotype AA): 0.52 | Predicted response (rs4786454 genotype AA): R | HR for time to events, dalcetrapib treatment arm versus placebo arm (rs4786454 genotype GA): 0.89 | Predicted response (rs4786454 genotype GA): PR | HR for time to events, dalcetrapib treatment arm versus placebo arm (rs4786454 genotype GG): 1.06 | Predicted response (rs4786454 genotype GG): NR | HR (95% CI) for time to events, dalcetrapib treatment arm only, genotype comparison (rs8049452 AA vs GG): 1.98 (1.51, 2.61) | HR (95% CI) for time to events, dalcetrapib treatment arm only, genotype comparison (rs8049452 GA vs GG): 1.26 (0.99, 1.6) | HR for time to events, dalcetrapib treatment arm versus placebo arm (rs8049452 genotype AA): 1.55 | Predicted response (rs8049452 genotype AA): NR | HR for time to events, dalcetrapib treatment arm versus placebo arm (rs8049452 genotype GA): 0.97 | Predicted response (rs8049452 genotype GA): PR | HR for time to events, dalcetrapib treatment arm versus placebo arm (rs8049452 genotype GG): 0.78 | Predicted response (rs8049452 genotype GG): R | HR (95% CI) for time to events, dalcetrapib treatment arm only, genotype comparison (rs8061182 AG vs AA): 1.23 (0.98, 1.56) | HR (95% CI) for time to events, dalcetrapib treatment arm only, genotype comparison (rs8061182 GG vs AA): 1.81 (1.37, 2.39) | HR for time to events, dalcetrapib treatment arm versus placebo arm (rs8061182 genotype AA): 0.79
